Several values for one entry are separate records, joined by “and”; a condition that tells them apart may be missing. Equal values may be shown once. Read-outs that look alike come from different tables or passages of the source.

Assay [1] deals with p-CREB (phosphorylated cAMP response-element binding protein) in human whole blood. Kind of assay: p-CREB assay in human whole blood by flow cytometry (NECA stimulation, CD4 staining). It is filed as cell-based. How it is done: Assay protocol for p-CREB (phosphorylated cAMP response-element binding protein) in human whole blood by flow cytometry
Fresh human whole blood (Biological Specialty Corporation) was added at 100 ul per wellinto a 96-well plate and treated with test compounds (Serial dilutions of 1:3 with starting concentration at 30 uM, 11 concentrations total, in the presence of adenosine deaminase) for one hour at room temperature on a plate shaker. Then 10 ul of 10× NECA (50 uM stock in PBS) and 10 ul of 10 × Rolipram (50 uM stock in PBS) were added, with designated wells for unstimulated (Rolipram+DMSO) and stimulated (Rolipram+NECA+DMSO) conditions. The plates were mixed well and incubated at room temperature for 30 min on a plate shaker. 1× lyse/Fix buffer (5× stock, BD #558049) was warmed to 37° in a water bath. 1200 ul of pre-warmed 1× lyse/Fix buffer was then added to the plate, which was then sealed and mixed by inverting the plate a few times. The plate was then incubated for 30 min at 37° in a water bath. After incubation, the plate was centrifuged at 1600 rpm for 5 min and the supernatant was decanted, then 1200 ul PBS was added and the plate was mixed by inverting a few times followed by centrifuging at 1600 rpm for 5 min and again decanting the supernatant. Then, 200 ul FIX PERM buffer II (BD #558052) was added and the plate was mixed well, then kept on ice for 45 min After spinning the plate at 1600 rpm for 5 min the supernatant was again decanted. Then was added 200 ul staining buffer (BD #554657), and the plate was mixed well and spun at 1600 rpm for 5 min, then the supernatant was again decanted. 200 ul staining buffer was added, the plate was mixed well and the plate was sealed at this step for storage at 4° overnight or until staining. Before staining, the plate was spun at 1600 rpm for 5 min and the supernatant was again decanted. Antibody mix in staining buffer was prepared (75 ul/well, 1:50 dilution for p-CREB antibody from Cell Signaling Tech #14001S, 1:200 dilution for CD4 antibody from BD #566320) and the cells were resuspended in the above antibody mix solution. After mixing well, the plate was incubated (shielded from light) at room temperature for two hours on a plate shaker. It was then spun at 1600 rpm for 5 min and the supernatant was decanted. 200 ul staining buffer was then added to wash cells, and the plate was then mixed by shaking or pipetting. The wash step was repeated at least one more time, and after the final wash, cells were resusptended in 200 ul staining buffer in U bottom plate for flow cytometry analysis.
Background: Flow cytometry measures light scatter and fluorescence of single cells or particles in a stream.

A further assay deals with Adenosine A2A receptor (Homo sapiens, UniProt P29274). Kind of assay: cAMP assay in 293A cells stably expressing the adenosine A2A receptor (CGS21680 stimulation, HTRF). Particulars: 0.1% BSA, read-out: cAMP (nM) 0.1% BSA, 1 uM CGS. On the set-up: expressed in transfected cells; host or cells: 293A cells (Invitrogen, Cat# R705-07) infected with A2A-expressing lentivirus (custom packaged by Biosettia), puromycin selected. In kind it is cell-based. Background: Cyclic AMP is a second messenger, typically raised through Gs and lowered through Gi signalling.
Adenosine A2A receptor, sequence (P29274 whole entry): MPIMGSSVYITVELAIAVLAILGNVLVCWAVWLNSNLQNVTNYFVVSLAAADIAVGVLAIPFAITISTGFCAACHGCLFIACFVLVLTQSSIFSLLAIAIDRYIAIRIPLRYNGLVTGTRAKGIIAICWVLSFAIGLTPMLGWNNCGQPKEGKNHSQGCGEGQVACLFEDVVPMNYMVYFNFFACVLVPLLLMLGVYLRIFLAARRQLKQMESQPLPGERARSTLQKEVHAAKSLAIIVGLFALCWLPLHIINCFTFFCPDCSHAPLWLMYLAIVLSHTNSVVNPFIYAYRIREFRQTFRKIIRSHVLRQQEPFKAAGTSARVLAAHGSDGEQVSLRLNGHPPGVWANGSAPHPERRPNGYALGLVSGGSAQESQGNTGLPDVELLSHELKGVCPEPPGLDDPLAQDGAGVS

[2] abbreviates: Homo sapiens, replicate values separated by /.
The mark [3] stands for this setting: 293A cells stably expressing A2A receptor, 1 uM CGS21680 stimulation, replicate values separated by /.

As to `CNc1cccc(COc2nc(N)nc(-c3ccc(F)cc3)c2-c2cc(C)nc(C(F)F)c2)n1` [Example 379, 5-(2-(difluoromethyl)-6-methylpyridin-4-yl)-4-(4-fluorophenyl)-6-((6-(methylamino)pyridin-2-yl)methoxy)pyrimidin-2-amine], the IC50 in assay [1] was 10.7 nM; in assay [1] (Homo sapiens) it was 13.1 nM; on Adenosine A2A receptor (293A-A2AR cells, 1 uM CGS), 230 nM and 119 nM and 72 nM.

As to `Cc1cc(-c2c(OCc3nccc4ccccc34)nc(N)nc2-c2ccc(F)cc2)cc(C(F)F)n1` [Example 381, 5-(2-(difluoromethyl)-6-methylpyridin-4-yl)-4-(4-fluorophenyl)-6-(isoquinolin-1-ylmethoxy)pyrimidin-2-amine], the IC50 was 36 nM in assay [1] (Homo sapiens); 16 nM and 3.2 nM at Adenosine A2A receptor (293A-A2AR cells, 1 uM CGS).

For the molecule `Cc1cc(-c2c(OCc3cccc(C(C)(C)C(=O)O)n3)nc(N)nc2-c2ccc(F)cc2)cc(C(F)(F)F)n1` [Example 385, 2-(6-(((2-amino-6-(4-fluorophenyl)-5-(2-methyl-6-(trifluoromethyl)pyridin-4-yl)pyrimidin-4-yl)oxy)methyl)pyridin-2-yl)-2-methylpropanoic acid], the IC50 in assay [1] (Homo sapiens) is 1460 nM; on Adenosine A2A receptor (293A-A2AR cells, 1 uM CGS), 2330 nM and 1020 nM.

In the case of `CNC(C)(C)c1cccc(COc2nc(N)nc(-c3ccc(F)cc3)c2-c2cc(C)nc(C(F)F)c2)n1` [Example 389, 5-(2-(difluoromethyl)-6-methylpyridin-4-yl)-4-(4-fluorophenyl)-6-((6-(2-(methylamino)propan-2-yl)pyridin-2-yl)methoxy)pyrimidin-2-amine], the IC50 in assay [1] (Homo sapiens) was 60 nM; on Adenosine A2A receptor (293A-A2AR cells, 1 uM CGS) it was 231 nM and 114 nM and 100 nM.

As to `Cc1cc(-c2c(OCc3cccc(C4(C(=O)O)CC4)n3)nc(N)nc2-c2ccc(F)cc2)cc(C(F)F)n1` [Example 391, 1-(6-(((2-amino-5-(2-(difluoromethyl)-6-methylpyridin-4-yl)-6-(4-fluorophenyl)pyrimidin-4-yl)oxy)methyl)pyridin-2-yl)cyclopropane-1-carboxylic acid], the IC50 in assay [1] (Homo sapiens) was 602 nM; at Adenosine A2A receptor (293A-A2AR cells, 1 uM CGS) it was 1130 nM and 979 nM.

For the molecule `Cc1cc(-c2c(OCc3cccc(C4(C(=O)O)CCC4)n3)nc(N)nc2-c2ccc(F)cc2)cc(C(F)F)n1` [Example 392, 1-(6-(((2-amino-5-(2-(difluoromethyl)-6-methylpyridin-4-yl)-6-(4-fluorophenyl)pyrimidin-4-yl)oxy)methyl)pyridin-2-yl)cyclobutane-1-carboxylic acid], the IC50 in assay [1] (Homo sapiens) was 353 nM; on Adenosine A2A receptor (293A-A2AR cells, 1 uM CGS) it was 186 nM and 139 nM and 180 nM and 209 nM.

Consider `CCC(CC)(C(=O)O)c1cccc(COc2nc(N)nc(-c3ccc(F)cc3)c2-c2cc(C)nc(C(F)F)c2)n1` [Example 398, 2-(6-(((2-amino-5-(2-(difluoromethyl)-6-methylpyridin-4-yl)-6-(4-fluorophenyl)pyrimidin-4-yl)oxy)methyl)pyridin-2-yl)-2-ethylbutanoic acid], for which the IC50 was 43.6 nM in assay [1] (setting [2]); 26.2 nM in assay [1] (replicate values separated by /); 20 nM and 70 nM and 68 nM and 141 nM on Adenosine A2A receptor (setting [3]).

Consider `Cc1cc(-c2c(OCc3cccc(-c4nn[nH]n4)n3)nc(N)nc2-c2ccc(F)cc2)cc(C(F)F)n1` [Example 399, 4-((6-(2H-tetrazol-5-yl)pyridin-2-yl)methoxy)-5-(2-(difluoromethyl)-6-methylpyridin-4-yl)-6-(4-fluorophenyl)pyrimidin-2-amine], for which the IC50 in assay [1] (setting [2]) is 201 nM; on Adenosine A2A receptor (setting [3]) it was 273 nM and 362 nM and 482 nM and 440 nM.

Consider `Cc1cc(-c2c(OCc3cccc(N(CCO)CCO)n3)nc(N)nc2-c2ccc(F)cc2)cc(C(F)F)n1` [Example 402, 2,2′-((6-(((2-amino-5-(2-(difluoromethyl)-6-methylpyridin-4-yl)-6-(4-fluorophenyl)pyrimidin-4-yl)oxy)methyl)pyridin-2-yl)azanediyl)bis(ethan-1-ol)], for which the IC50 in assay [1] (setting [2]) was 692 nM; at Adenosine A2A receptor (setting [3]) it was 515 nM and 579 nM and 560 nM.

Take `CNCc1cccc(COc2nc(N)nc(-c3ccc(F)cc3)c2-c2cc(C)nc(C(F)F)c2)n1` [Example 403, 5-(2-(difluoromethyl)-6-methylpyridin-4-yl)-4-(4-fluorophenyl)-6-((6-((methylamino)methyl)pyridin-2-yl)methoxy)pyrimidin-2-amine]: the IC50 is 108 nM in assay [1] (setting [2]); 249 nM and 322 nM and 311 nM at Adenosine A2A receptor (setting [3]).

The record behind these values is patent publication US20210355104A1, “ADENOSINE RECEPTOR BINDING COMPOUNDS” (Nikang Therapeuticsm Inc., priority 2018, published 2021).
